Results from ChEMBL document CHEMBL5724914, “Linking interpersonal differences in gut microbiota composition and drug biotransformation activity” (2024).

Legend:
[1] = human gut metagenome, 24 h, 2 µM
[2] = human gut metagenome, 24 h, 2 µM; remark: listed apart in the source
[3] = human gut metagenome, 24 h, 2 µM; remark: listed apart in the source
[4] = (§1) The drug is tested on Z-009 corresponding to pig gut metagenome with ENA study accession number: PRJEB37062 and ENA sample accession number: ERS12561809 for biotransformation under anaerobic condition. The drug concentrations were measured over 9 timepoints collected between 0 and 24 hours of incubation by liquid-chromatography-coupled mass spectrometry (LC–MS); details: 2 µM
[5] = as §1, with “Z-005” for “Z-009”, “to” for “to pig gut”, “ERS12561805” for “ERS12561809”; details: 2 µM
[6] = human gut metagenome, 24 h, 2 µM; remark: listed apart in the source
[7] = human gut metagenome, 24 h, 2 µM; remark: listed apart in the source
[8] = as §1, with “Z-024” for “Z-009”, “ERS12561823” for “ERS12561809”; details: 2 µM
[9] = as §1, with “WLS-038” for “Z-009”, “human” for “pig”, “ERS12561745” for “ERS12561809”; details: 2 µM
[10] = as §1, with “Z-016” for “Z-009”, “mouse” for “pig”, “ERS12561815” for “ERS12561809”; details: 2 µM
[11] = as §1, with “WLS-006” for “Z-009”, “human” for “pig”, “ERS12561741” for “ERS12561809”; details: 2 µM
[12] = as §1, with “Z-008” for “Z-009”, “to” for “to pig gut”, “ERS12561808” for “ERS12561809”; details: 2 µM
[13] = as §1, with “Z-020” for “Z-009”, “rabbit” for “pig”, “ERS12561819” for “ERS12561809”; details: 2 µM
[14] = as §1, with “Z-013” for “Z-009”, “rabbit” for “pig”, “ERS12561813” for “ERS12561809”; details: 2 µM
[15] = as §1, with “Z-012” for “Z-009”, “to” for “to pig gut”, “ERS12561812” for “ERS12561809”; details: 2 µM
[16] = as §1, with “Z-006” for “Z-009”, “mouse” for “pig”, “ERS12561806” for “ERS12561809”; details: 2 µM
[17] = human gut metagenome, 24 h, 2 µM; remark: listed apart in the source
[18] = as §1, with “Z-023” for “Z-009”, “to” for “to pig gut”, “ERS12561822” for “ERS12561809”; details: 2 µM
[19] = as §1, with “Z-029” for “Z-009”, “rat” for “pig”, “ERS12561828” for “ERS12561809”; details: 2 µM
[20] = human gut metagenome, 24 h, 2 µM; remark: listed apart in the source
Also: call rule not given here.

| Bacterial Biotransformation [1] | Bacterial Biotransformation [2] | Bacterial Biotransformation [3] | Bacterial Biotransformation [4] | Bacterial Biotransformation [5] | Bacterial Biotransformation [6] | Bacterial Biotransformation [7] | Bacterial Biotransformation [8] | Bacterial Biotransformation [9] | Bacterial Biotransformation [10] | Bacterial Biotransformation [11] | Bacterial Biotransformation [12] | Bacterial Biotransformation [13] | Bacterial Biotransformation [14] | Bacterial Biotransformation [15] | Bacterial Biotransformation [16] | Bacterial Biotransformation [17] | Bacterial Biotransformation [18] | Bacterial Biotransformation [19] | Bacterial Biotransformation [20] | Structure (SMILES) |
| --- | --- | --- | --- | --- | --- | --- | --- | --- | --- | --- | --- | --- | --- | --- | --- | --- | --- | --- | --- | --- |
| Compound NOT metabolized | Compound NOT metabolized | Compound NOT metabolized | Compound NOT metabolized | Compound NOT metabolized | Compound NOT metabolized | Compound NOT metabolized | Compound NOT metabolized | Compound NOT metabolized | Compound NOT metabolized | Compound NOT metabolized | Compound NOT metabolized | Compound NOT metabolized | Compound NOT metabolized | Compound NOT metabolized | Compound NOT metabolized | Compound NOT metabolized | Compound NOT metabolized | Compound NOT metabolized | Compound NOT metabolized | Cc1cc2c(cc1S(N)(=O)=O)S(=O)(=O)CCC2 |
| Compound NOT metabolized | Compound NOT metabolized | Compound NOT metabolized | Compound NOT metabolized | Compound NOT metabolized | Compound NOT metabolized | Compound NOT metabolized | Compound metabolized | Compound NOT metabolized | Compound NOT metabolized | Compound NOT metabolized | Compound NOT metabolized | Compound NOT metabolized | Compound NOT metabolized | Compound NOT metabolized | Compound NOT metabolized | Compound metabolized | Compound NOT metabolized | Compound NOT metabolized | Compound NOT metabolized | CN1CCc2c(c3ccccc3n2Cc2ccccc2)C1.CN1CCc2c(c3ccccc3n2Cc2ccccc2)C1.O=S(=O)(O)c1cccc2c(S(=O)(=O)O)cccc12 |
| Compound NOT metabolized | Compound metabolized | Compound metabolized | Compound metabolized | Compound NOT metabolized | Compound NOT metabolized | Compound metabolized | Compound NOT metabolized | Compound NOT metabolized | Compound NOT metabolized | Compound metabolized | Compound NOT metabolized | Compound NOT metabolized | Compound NOT metabolized | Compound NOT metabolized | Compound NOT metabolized | Compound metabolized | Compound NOT metabolized | Compound NOT metabolized | Compound metabolized | COc1cc2nc(N(C)CCCNC(=O)C3CCCO3)nc(N)c2cc1OC (stereo not given) [ALFUZOSIN] |
| Compound NOT metabolized | Compound NOT metabolized | Compound NOT metabolized | Compound NOT metabolized | Compound NOT metabolized | Compound NOT metabolized | Compound NOT metabolized | Compound NOT metabolized | Compound NOT metabolized | Compound NOT metabolized | Compound NOT metabolized | Compound NOT metabolized | Compound NOT metabolized | Compound NOT metabolized | Compound NOT metabolized | Compound NOT metabolized | Compound NOT metabolized | Compound NOT metabolized | Compound NOT metabolized | Compound NOT metabolized | NC12CC3CC(CC(C3)C1)C2 [AMANTADINE] |
| Compound NOT metabolized | Compound metabolized | Compound metabolized | Compound metabolized | Compound NOT metabolized | Compound NOT metabolized | Compound metabolized | Compound metabolized | Compound NOT metabolized | Compound NOT metabolized | Compound NOT metabolized | Compound NOT metabolized | Compound NOT metabolized | Compound NOT metabolized | Compound NOT metabolized | Compound NOT metabolized | Compound metabolized | Compound metabolized | Compound NOT metabolized | Compound NOT metabolized | CC(C)(C#N)c1cc(Cn2cncn2)cc(C(C)(C)C#N)c1 [ANASTROZOLE] |
| Compound metabolized | Compound metabolized | Compound metabolized | Compound metabolized | Compound metabolized | Compound metabolized | Compound metabolized | Compound metabolized | Compound metabolized | Compound metabolized | Compound metabolized | Compound NOT metabolized | Compound metabolized | Compound metabolized | Compound NOT metabolized | Compound metabolized | Compound metabolized | Compound metabolized | Compound metabolized | Compound metabolized | CC(=O)OCC(=O)[C@@]1(O)[C@@H](C)C[C@H]2[C@@H]3CCC4=CC(=O)C=C[C@]4(C)[C@@]3(F)[C@@H](O)C[C@@]21C [BETAMETHASONE ACETATE] |

| Structure (SMILES) | Bacterial Biotransformation [1] | Bacterial Biotransformation [2] | Bacterial Biotransformation [3] | Bacterial Biotransformation [4] | Bacterial Biotransformation [5] | Bacterial Biotransformation [6] | Bacterial Biotransformation [7] | Bacterial Biotransformation [8] | Bacterial Biotransformation [9] | Bacterial Biotransformation [10] | Bacterial Biotransformation [11] | Bacterial Biotransformation [12] | Bacterial Biotransformation [13] | Bacterial Biotransformation [14] | Bacterial Biotransformation [15] | Bacterial Biotransformation [16] | Bacterial Biotransformation [17] | Bacterial Biotransformation [18] | Bacterial Biotransformation [19] | Bacterial Biotransformation [20] |
| --- | --- | --- | --- | --- | --- | --- | --- | --- | --- | --- | --- | --- | --- | --- | --- | --- | --- | --- | --- | --- |
| O=P(O)(O)O.c1ccc(CN(CC2=NCCN2)c2ccccc2)cc1 [ANTAZOLINE PHOSPHATE] | Compound NOT metabolized | Compound metabolized | Compound NOT metabolized | Compound NOT metabolized | Compound NOT metabolized | Compound NOT metabolized | Compound metabolized | Compound metabolized | Compound NOT metabolized | Compound NOT metabolized | Compound metabolized | Compound NOT metabolized | Compound NOT metabolized | Compound NOT metabolized | Compound NOT metabolized | Compound NOT metabolized | Compound metabolized | Compound NOT metabolized | Compound NOT metabolized | Compound NOT metabolized |
| CN1CCC(=C2c3ccccc3CCc3cccnc32)CC1.O=C(O)/C=C\C(=O)O.O=C(O)/C=C\C(=O)O [AZATADINE MALEATE] | Compound NOT metabolized | Compound NOT metabolized | Compound NOT metabolized | Compound NOT metabolized | Compound NOT metabolized | Compound NOT metabolized | Compound NOT metabolized | Compound NOT metabolized | Compound NOT metabolized | Compound NOT metabolized | Compound NOT metabolized | Compound NOT metabolized | Compound NOT metabolized | Compound NOT metabolized | Compound NOT metabolized | Compound NOT metabolized | Compound NOT metabolized | Compound NOT metabolized | Compound NOT metabolized | Compound NOT metabolized |
